Results on 12 molecules are retold here after paper doi:10.1101/2023.11.24.568596v1 (biorxiv, 2023).

Details in all cases: binder
Test [1] addresses AKT3 (Homo sapiens, UniProt Q9Y243).
Test [2] addresses DYRK1A (Homo sapiens, UniProt Q13627).
Test [3] has as its target EphA5 (Homo sapiens, UniProt P54756).
The target in test [4] is T1, EphB1 (Homo sapiens, UniProt P54762).
T1 sequence (P54762 1-984): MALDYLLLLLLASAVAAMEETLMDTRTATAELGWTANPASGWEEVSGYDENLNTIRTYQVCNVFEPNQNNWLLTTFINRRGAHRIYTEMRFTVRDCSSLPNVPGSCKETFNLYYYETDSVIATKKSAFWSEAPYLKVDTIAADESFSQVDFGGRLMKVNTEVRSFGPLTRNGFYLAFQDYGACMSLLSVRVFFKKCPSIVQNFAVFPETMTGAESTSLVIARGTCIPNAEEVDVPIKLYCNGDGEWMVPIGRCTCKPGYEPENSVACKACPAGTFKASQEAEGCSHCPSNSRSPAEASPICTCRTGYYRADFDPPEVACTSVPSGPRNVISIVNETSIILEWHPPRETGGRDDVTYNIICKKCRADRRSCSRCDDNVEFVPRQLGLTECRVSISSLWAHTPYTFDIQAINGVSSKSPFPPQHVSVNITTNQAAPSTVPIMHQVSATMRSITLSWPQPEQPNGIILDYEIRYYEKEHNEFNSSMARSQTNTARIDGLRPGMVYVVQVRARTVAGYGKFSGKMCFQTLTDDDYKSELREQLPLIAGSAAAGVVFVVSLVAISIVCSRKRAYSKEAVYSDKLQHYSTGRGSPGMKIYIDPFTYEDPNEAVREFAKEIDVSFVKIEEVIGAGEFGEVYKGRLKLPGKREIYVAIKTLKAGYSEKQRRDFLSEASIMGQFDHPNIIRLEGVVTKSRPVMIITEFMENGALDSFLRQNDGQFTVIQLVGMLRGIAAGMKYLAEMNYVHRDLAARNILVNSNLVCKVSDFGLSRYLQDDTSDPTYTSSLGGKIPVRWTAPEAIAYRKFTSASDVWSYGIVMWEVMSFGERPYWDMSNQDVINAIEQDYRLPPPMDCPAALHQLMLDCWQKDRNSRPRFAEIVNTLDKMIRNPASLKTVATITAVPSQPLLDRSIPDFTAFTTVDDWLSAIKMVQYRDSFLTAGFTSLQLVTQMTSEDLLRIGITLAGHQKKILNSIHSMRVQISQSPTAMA

Test [5] concerns the target T2, NEK2 (Homo sapiens, UniProt P51955).
T2 sequence (P51955 1-445): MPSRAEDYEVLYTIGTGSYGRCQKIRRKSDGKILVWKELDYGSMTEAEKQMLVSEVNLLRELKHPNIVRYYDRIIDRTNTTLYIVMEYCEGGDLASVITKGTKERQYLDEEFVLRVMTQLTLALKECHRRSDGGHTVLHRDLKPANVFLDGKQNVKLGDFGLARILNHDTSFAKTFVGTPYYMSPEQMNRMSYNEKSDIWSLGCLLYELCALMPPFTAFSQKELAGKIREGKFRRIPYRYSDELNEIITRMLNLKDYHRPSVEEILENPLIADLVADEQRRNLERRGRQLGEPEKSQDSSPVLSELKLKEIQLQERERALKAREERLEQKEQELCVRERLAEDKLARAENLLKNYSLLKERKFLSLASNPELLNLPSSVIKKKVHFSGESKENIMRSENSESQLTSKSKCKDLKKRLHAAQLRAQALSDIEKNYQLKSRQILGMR

Test [6] addresses CK1e (Homo sapiens, UniProt P49674).
Test [7] concerns the target T1, EphB1. This is another data set of the same source.
Test [8] addresses Erk3 (Homo sapiens, UniProt Q16659).
The target in test [9] is T3, FECH (Homo sapiens, UniProt P22830).
T3 sequence (P22830 1-423): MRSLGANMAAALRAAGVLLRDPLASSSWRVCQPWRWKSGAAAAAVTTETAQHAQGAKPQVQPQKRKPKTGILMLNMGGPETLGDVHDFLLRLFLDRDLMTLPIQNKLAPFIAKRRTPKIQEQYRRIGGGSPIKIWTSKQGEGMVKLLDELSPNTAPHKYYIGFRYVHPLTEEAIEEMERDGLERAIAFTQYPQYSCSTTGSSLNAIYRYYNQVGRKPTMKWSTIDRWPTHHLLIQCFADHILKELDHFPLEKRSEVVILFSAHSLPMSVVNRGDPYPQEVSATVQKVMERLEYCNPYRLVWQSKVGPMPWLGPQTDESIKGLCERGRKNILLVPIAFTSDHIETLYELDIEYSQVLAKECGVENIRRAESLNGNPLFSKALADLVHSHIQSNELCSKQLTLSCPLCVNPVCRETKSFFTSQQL

The target of test [10] is HIPK2 (Homo sapiens, UniProt Q9H2X6).
Sequence of HIPK2 (Q9H2X6 whole entry): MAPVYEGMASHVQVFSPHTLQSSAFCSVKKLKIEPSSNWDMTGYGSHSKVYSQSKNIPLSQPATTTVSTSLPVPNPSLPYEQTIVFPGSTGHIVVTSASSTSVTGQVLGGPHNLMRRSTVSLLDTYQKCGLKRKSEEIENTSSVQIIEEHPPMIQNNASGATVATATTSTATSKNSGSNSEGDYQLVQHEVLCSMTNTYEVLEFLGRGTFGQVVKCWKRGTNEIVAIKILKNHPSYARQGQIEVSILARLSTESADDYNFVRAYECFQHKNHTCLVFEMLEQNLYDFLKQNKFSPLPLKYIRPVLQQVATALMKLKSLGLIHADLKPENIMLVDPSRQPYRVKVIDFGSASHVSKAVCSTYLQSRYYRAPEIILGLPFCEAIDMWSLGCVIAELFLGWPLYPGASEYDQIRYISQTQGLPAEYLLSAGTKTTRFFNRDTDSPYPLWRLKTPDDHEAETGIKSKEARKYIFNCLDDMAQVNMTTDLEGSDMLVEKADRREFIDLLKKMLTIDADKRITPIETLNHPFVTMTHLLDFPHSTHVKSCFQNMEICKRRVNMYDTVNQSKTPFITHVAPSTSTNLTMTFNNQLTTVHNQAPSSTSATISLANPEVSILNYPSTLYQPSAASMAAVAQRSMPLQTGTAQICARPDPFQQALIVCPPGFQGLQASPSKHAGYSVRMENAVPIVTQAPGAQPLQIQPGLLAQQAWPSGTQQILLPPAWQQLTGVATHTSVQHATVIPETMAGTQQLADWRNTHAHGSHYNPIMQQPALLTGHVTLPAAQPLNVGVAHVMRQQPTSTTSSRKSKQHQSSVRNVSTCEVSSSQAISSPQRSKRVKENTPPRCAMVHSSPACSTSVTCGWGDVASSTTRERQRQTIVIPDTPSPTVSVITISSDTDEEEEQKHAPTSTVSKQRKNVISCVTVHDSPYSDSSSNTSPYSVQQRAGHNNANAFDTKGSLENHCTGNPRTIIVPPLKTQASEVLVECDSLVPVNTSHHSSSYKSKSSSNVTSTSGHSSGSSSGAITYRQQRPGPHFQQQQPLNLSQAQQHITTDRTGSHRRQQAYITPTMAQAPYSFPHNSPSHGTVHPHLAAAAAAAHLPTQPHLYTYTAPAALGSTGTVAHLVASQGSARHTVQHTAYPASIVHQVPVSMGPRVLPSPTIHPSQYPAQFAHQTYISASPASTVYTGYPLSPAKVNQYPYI
For test [11], the target named is MSSK1 (Homo sapiens, UniProt Q9UPE1).
Sequence of MSSK1 (Q9UPE1 whole entry): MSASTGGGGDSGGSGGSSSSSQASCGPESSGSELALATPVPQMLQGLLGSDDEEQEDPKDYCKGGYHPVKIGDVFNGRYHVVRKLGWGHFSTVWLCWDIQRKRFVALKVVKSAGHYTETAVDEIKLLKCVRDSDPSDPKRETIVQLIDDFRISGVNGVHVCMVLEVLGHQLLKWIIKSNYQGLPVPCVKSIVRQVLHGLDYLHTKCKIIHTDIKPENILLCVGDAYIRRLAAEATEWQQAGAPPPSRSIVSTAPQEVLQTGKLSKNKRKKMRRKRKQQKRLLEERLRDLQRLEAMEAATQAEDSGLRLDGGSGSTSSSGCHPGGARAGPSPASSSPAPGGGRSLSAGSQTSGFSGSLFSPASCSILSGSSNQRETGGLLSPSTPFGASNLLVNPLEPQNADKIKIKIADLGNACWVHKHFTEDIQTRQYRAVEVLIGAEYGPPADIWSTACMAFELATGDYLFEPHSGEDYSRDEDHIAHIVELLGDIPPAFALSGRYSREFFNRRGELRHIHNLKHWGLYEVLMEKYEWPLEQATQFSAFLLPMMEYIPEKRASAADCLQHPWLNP
Test [12] deals with PAK1 (Homo sapiens, UniProt Q13153).
Sequence of PAK1 (Q13153 whole entry): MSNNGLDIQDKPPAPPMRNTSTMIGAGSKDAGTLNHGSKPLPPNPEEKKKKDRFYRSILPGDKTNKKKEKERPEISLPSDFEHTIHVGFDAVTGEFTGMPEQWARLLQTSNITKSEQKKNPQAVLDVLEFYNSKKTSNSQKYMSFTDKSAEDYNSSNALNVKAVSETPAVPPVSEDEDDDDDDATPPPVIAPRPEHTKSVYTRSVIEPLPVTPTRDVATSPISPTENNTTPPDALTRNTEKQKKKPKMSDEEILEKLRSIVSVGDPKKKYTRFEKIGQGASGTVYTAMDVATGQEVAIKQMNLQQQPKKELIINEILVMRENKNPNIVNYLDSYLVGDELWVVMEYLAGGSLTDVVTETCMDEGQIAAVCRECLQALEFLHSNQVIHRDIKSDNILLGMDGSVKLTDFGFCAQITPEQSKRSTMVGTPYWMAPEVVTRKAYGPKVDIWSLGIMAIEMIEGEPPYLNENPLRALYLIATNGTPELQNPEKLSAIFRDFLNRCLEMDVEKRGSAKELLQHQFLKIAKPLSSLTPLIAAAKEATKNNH

Sequence of AKT3 (Q9Y243 whole entry): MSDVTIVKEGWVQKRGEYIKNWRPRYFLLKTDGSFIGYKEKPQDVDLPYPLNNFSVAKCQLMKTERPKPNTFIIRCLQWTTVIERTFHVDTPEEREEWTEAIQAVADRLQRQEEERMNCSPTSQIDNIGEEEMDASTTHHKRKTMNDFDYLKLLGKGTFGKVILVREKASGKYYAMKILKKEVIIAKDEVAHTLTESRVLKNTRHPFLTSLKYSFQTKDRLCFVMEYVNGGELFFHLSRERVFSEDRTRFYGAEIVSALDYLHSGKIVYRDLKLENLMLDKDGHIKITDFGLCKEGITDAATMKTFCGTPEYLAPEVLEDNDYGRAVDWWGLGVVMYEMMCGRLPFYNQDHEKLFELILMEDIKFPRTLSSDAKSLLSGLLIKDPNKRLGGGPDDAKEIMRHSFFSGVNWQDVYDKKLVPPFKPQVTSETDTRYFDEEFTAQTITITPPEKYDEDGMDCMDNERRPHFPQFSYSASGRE
Sequence of EphA5 (P54756 whole entry): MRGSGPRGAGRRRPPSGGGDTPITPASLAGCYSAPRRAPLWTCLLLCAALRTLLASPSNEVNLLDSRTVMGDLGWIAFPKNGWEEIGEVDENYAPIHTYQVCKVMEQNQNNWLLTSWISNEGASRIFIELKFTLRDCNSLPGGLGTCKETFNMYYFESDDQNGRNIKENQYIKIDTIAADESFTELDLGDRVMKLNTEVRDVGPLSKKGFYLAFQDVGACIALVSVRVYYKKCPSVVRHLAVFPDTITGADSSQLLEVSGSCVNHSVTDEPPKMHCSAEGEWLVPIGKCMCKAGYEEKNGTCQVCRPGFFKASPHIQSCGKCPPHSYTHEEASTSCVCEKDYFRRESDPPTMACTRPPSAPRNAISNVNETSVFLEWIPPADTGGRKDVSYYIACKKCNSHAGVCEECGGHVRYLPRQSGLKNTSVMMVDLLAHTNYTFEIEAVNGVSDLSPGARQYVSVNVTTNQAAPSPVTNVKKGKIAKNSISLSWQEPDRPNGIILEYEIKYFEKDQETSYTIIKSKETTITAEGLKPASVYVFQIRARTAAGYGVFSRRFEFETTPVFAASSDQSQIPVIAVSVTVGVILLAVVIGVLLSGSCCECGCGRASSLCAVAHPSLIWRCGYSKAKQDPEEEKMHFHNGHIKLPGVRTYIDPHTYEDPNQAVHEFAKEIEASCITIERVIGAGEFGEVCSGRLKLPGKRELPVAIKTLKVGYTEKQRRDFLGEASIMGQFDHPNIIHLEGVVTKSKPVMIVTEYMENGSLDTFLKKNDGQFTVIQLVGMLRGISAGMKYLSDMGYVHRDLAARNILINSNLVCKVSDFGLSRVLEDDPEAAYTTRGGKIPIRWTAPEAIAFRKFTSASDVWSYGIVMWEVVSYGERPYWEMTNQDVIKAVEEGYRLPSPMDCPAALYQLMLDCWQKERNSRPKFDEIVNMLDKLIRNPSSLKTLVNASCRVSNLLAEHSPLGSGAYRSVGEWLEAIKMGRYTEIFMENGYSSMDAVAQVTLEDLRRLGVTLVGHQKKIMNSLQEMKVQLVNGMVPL
Sequence of Erk3 (Q16659 whole entry): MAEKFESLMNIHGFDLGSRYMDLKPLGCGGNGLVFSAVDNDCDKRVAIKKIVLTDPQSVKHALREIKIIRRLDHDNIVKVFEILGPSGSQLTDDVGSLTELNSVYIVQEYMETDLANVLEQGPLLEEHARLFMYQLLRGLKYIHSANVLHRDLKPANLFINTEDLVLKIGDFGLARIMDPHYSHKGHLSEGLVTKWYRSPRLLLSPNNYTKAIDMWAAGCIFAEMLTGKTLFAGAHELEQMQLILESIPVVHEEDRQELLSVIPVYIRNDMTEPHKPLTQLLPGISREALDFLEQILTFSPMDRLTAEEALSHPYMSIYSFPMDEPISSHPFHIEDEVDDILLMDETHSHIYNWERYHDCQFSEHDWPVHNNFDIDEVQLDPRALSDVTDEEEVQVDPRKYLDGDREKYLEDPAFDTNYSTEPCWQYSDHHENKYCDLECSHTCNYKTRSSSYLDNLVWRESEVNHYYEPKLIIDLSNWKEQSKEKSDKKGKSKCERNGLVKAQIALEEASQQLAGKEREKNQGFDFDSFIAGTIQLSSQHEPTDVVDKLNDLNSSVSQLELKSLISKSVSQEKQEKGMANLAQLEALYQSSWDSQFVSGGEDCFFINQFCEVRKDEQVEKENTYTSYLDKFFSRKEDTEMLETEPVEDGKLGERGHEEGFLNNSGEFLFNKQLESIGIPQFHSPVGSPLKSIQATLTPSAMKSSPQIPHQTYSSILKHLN
Sequence of CK1e (P49674 whole entry): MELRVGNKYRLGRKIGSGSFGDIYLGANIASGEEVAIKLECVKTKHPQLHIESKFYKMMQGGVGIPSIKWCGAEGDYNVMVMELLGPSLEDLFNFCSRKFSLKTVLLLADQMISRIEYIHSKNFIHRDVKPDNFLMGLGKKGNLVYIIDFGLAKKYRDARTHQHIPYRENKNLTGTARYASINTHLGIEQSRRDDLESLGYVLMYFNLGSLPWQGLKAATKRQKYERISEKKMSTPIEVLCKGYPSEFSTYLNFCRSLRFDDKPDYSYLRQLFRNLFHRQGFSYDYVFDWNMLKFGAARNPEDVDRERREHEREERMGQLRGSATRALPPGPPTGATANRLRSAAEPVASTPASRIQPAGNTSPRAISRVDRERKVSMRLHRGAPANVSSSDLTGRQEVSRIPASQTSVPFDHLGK

With `Cc1cccc(-c2ccc(-c3cc4cnc(NCCCN5CCNCC5)nc4n(CCCCN)c3=O)c(Cl)c2)n1` [compound 29, 8-(4-Aminobutyl)-6-(2-chloro-4-(6-methylpyridin-2-yl)phenyl)-2-((3-(piperazin-1-yl)propyl)amino)pyrido[2,3-d]pyrimidin-7(8H)-one], the “ΔTm 29” value in [1] was 0.8 °C; in [2], -0.3 °C; in test [3], 2.7 °C; in test [4] it was 4.3 °C; in test [5] it was 5.1 °C.
Regarding `Cc1cccc(-c2ccc(-c3cc4cnc(NCCCc5ccc(N)cc5)nc4n(CCCCN)c3=O)c(Cl)c2)n1` [compound 25, 8-(4-Aminobutyl)-2-((3-(4-aminophenyl)propyl)amino)-6-(2-chloro-4-(6-methylpyridin-2-yl)phenyl)pyrido[2,3-d]pyrimidin-7(8H)-one], the “ΔTm 25” value was 8.0 °C in [6]; 3.0 °C in test [7]; 1.0 °C in test [8]; 3.0 °C in test [9]; 0.8 °C in test [10]; -0.4 °C in test [11].
Regarding `Cc1cccc(-c2ccc(-c3cc4cnc(NC(CO)CO)nc4n(CCCCN)c3=O)c(Cl)c2)n1` [compound 24, 8-(4-Aminobutyl)-6-(2-chloro-4-(6-methylpyridin-2-yl)phenyl)-2-((1,3-dihydroxypropan-2-yl)amino)pyrido[2,3-d]pyrimidin-7(8H)-one], the “ΔTm MR24 (24)” value in test [6] is 6.4 °C; in [7], 0.2 °C; in test [8] it was 0.4 °C; in test [9], -0.5 °C; in [10], 0.4 °C; in test [11], -0.2 °C.
Regarding `CNc1ncc2cc(-c3ccc(-c4cccc(C)n4)cc3Cl)c(=O)n(C[C@H]3CC[C@H](N)CC3)c2n1` [compound 23, 23], the figures for the “ΔTm 23” value in test [7] and in test [10] were 3.4 °C and 2.1 °C, respectively. Besides, in test [12], the “dTm PAK1” value came out at 8.4 °C.
In the case of `Cc1cccc(-c2ccc(-c3cc4cnc(NCCCN5CCOCC5)nc4n(CCCCN)c3=O)c(Cl)c2)n1` [compound 26, MR26], the “ΔTm MR26 (26)” value in test [6] is 7.3 °C; in test [7], 3.7 °C; in test [8], 0.4 °C; in test [9], 0.3 °C; in test [10], 0.4 °C; in test [11], -0.3 °C.
In the case of `Cc1cccc(-c2ccc(-c3cc4cnc(NCCCN5CCCC5=O)nc4n(CCCCN)c3=O)c(Cl)c2)n1` [compound 27, MR30], the “ΔTm MR30 (27)” value was 0.9 °C in [1]; -1.2 °C in test [2]; 2.8 °C in test [3]; 3.0 °C in [4]; 6.2 °C in test [5].
Regarding `Cc1cccc(-c2ccc(-c3cc4cnc(Nc5ccc(O)cc5)nc4n(CCCCN)c3=O)c(Cl)c2)n1` [compound 31, 8-(4-Aminobutyl)-6-(2-chloro-4-(6-methylpyridin-2-yl)phenyl)-2-((4-hydroxyphenyl)amino) pyrido[2,3-d]pyrimidin-7(8H)-one], the “ΔTm 31” value in [1] is 4.2 °C; in [2], -1.0 °C; in test [3] it was 6.2 °C; in test [4], 6.6 °C; in [5], 10.8 °C.
For `Cc1cccc(-c2ccc(-c3cc4cnc(Nc5ccc(CCCO)cc5)nc4n(CCCCN)c3=O)c(Cl)c2)n1` [compound 30, 8-(4-Aminobutyl)-6-(2-chloro-4-(6-methylpyridin-2-yl)phenyl)-2-((4-(3-hydroxypropyl)phenyl)amino)pyrido[2,3-d]pyrimidin-7(8H)-one], the “ΔTm 30” value in test [1] is 4.3 °C; in test [2], -1.8 °C; in test [3], 6.6 °C; in test [4], 6.5 °C; in [5], 11.6 °C.
With `CNc1ncc2cc(-c3ccc(-c4cccc(C)n4)cc3Cl)c(=O)n(CCC3CCNCC3)c2n1` [compound 22, 6-(2-Chloro-4-(6-methylpyridin-2-yl)phenyl)-2-(methylamino)-8-(2-(piperidin-4-yl)ethyl)pyrido[2,3-d]pyrimidin-7(8H)-one], the “ΔTm 22” value in test [6] was 6.8 °C; in test [7] it was 2.6 °C; in test [9], -0.3 °C; in test [10], 2.3 °C; in test [11] it was -0.1 °C. The “dTm PAK1” value in test [12] was found to be 8.6 °C.
As for `Cc1cccc(-c2ccc(-c3cc4cnc(Nc5cc(C(F)(F)F)ccc5C)nc4n(CCCCN)c3=O)c(Cl)c2)n1` [compound 28, 8-(4-Aminobutyl)-6-(2-chloro-4-(6-methylpyridin-2-yl)phenyl)-2-((2-methyl-5-(trifluoromethyl)phenyl)amino)pyrido[2,3-d]pyrimidin-7(8H)-one], the “ΔTm 28” value in [1] stood at 0.3 °C; in test [2], 0.2 °C; in [3], 4.5 °C; in test [4], 5.1 °C; in test [5], 7.8 °C.
With `Cc1cccc(-c2ccc(-c3cc4cnc(Nc5ccc(C)c(O)c5)nc4n(CCCCN)c3=O)c(Cl)c2)n1` [compound 32, 8-(4-Aminobutyl)-6-(2-chloro-4-(6-methylpyridin-2-yl)phenyl)-2-((3-hydroxy-4-methylphenyl)amino)pyrido[2,3-d]pyrimidin-7(8H)-one], the “ΔTm 32” value in test [1] is 3.6 °C; in [2], -0.4 °C; in test [3], 6.6 °C; in test [4] it was 6.6 °C; in [5], 10.1 °C.
`CNc1ncc2cc(-c3ccc(-c4cccc(C)n4)cc3Cl)c(=O)n(CCCCN)c2n1` [compound 20, MRLW5]: in test [8], the “ΔTm MRLW5 (20)” value was 0.5 °C. Besides, the “dTm PAK1” value in test [12] was 6.5 °C.
